One data set relates to PRMT5. Briefly: Immunoblot of global SDMA in neonatal rat ventricular cardiomyocytes. The note with it: concentrations up to 50 μM. The format is cell-based. For orientation: A western blot detects proteins with antibodies after separation by electrophoresis.
The test system of data set [1] is murine heart. Briefly: Short-term application in mice: histology of cardiac cross-sections. The format is in vivo. As to conditions: oral once or twice a day, 5 consecutive days. How it is done:
The compound (Medchemexpress) was dissolved in 5% DMSO, 40% PEG300, 5% Tween-80 in isotonic saline solution and administered either via oral gavage or by injection into the tail vein. Control animals received the same solution without compound. Heart cross-sections (2-chamber view) were fixed in Roti Histofix (Roth, P087.5) and dehydrated in ethanol. After paraffin embedding, slices of 6µm thickness were cut and used for Hematoxylin/Eosin and Masson’s trichrome staining. Imaging was performed on a Zeiss Axioscan 7. For analysis, 10 snapshots of fixed dimension were taken per animal and the percentage of fibrotic tissue was assessed based on color threshold using ImageJ.

Data set [2] in a line: Single-dose pharmacokinetics in mice: tissue levels (heart, liver, kidney, skeletal muscle) by UPLC-MS/MS. Type of data set: in vivo. The note with it: for concentration at 1 h: po, 100 mg/kg, oral 100 mg/kg, peak (1 h). How it is done: (§1) All animal studies were approved by and conducted in accordance with the German Animal Welfare Act and approved by the Animal Experiment Review Board of the Regierungspräsidium Karlsruhe, Germany. The study refers to the application […]-19. C57BL/6N mice were purchased from Charles River at the age of 12 weeks. Male and female mice were included in an equal ratio. The compound (Medchemexpress) was dissolved in 5% DMSO, 40% PEG300, 5% Tween-80 in isotonic saline solution and administered either via oral gavage or by injection into the tail vein. Control animals received the same solution without compound. […] Tissue samples were homogenized in water using a Bead Ruptor 4 homogenizer (Omni International Inc, USA) for at least 120 s with ceramic beads. After protein precipitation with acetonitrile, plasma and tissue sample extracts were measured using an UPLC-MS/MS (Waters, USA) setup including an Acquity UPLC I-Class® coupled with a Xevo TQ-S triple stage quadrupole mass spectrometer (Waters), which featured a heated ESI source (Z-Spray in the positive MRM mode). Gradient chromatography was conducted using an ACQUITY UPLC BEH C18 column (130 Å, 1.7 μm, 2.1 mm × 50 mm; Waters, USA) consisting of eluent A (95/5 H2O/ACN with 0.1% formic acid) and eluent B (ACN with 0.1% formic acid).

In data set [3] the test system is murine heart. In words: PRMT5i combined with ORAB/sham surgery: histology (fibrosis). As to conditions: mice. The format is in vivo. The source says:
The surgical procedure was essentially performed as previously described^20. In brief, animals were narcotized using Isoflurane. The thorax was opened and a nitrile O-ring (inner diameter 0.020 inch) was closed around the aorta ascendens in order to enhance pressure load of the left ventricle. Perisurgically and for the following days, analgesia was maintained via buprenorphine. Heart cross-sections (2-chamber view) were fixed in Roti Histofix (Roth, P087.5) and dehydrated in ethanol. After paraffin embedding, slices of 6µm thickness were cut and used for Hematoxylin/Eosin and Masson’s trichrome staining. Imaging was performed on a Zeiss Axioscan 7. For analysis, 10 snapshots of fixed dimension were taken per animal and the percentage of fibrotic tissue was assessed based on color threshold using ImageJ.

A further data set concerns HEK293 cells. In words: PRMT5i-associated cytotoxicity, CellTiter 96 Cell Proliferation Assay. The note with it: dosage escalation beyond 10 μM, 48 h exposure. Type of data set: cell-based. How it is done:
HEK293 cells (ATCC) were cultured in DMEM (PanBiotech) supplemented with 10% FCS (Thermo Fisher) and 1% penicillin-streptomycin (Thermo Fisher) and incubated at standard conditions. Cells between passage 5 and 18 were used for experiments. Neonatal rat ventricular myocytes (NRVMs) were isolated from 24h-to-72h old rats using the Neonatal Heart Dissociation Kit (Miltenyi Biotec) according to manufacturer’s recommendations, cultured in DMEM supplemented with 10% FCS and 1% penicillin-streptomycin and incubated at standard conditions. EPZ015666 and GSK3326595 (MedChemExpress) were dissolved in DMSO and added into the culture medium at indicated dosages. For protein analysis, cells were treated for 96 h including a medium exchange after 48 h. Control cells were treated with DMSO accordingly. Single values in the analysis represent individually treated wells (technical replicates) and experiments were reproduced at least three times using independent cell passages or preparations. […] The treatment was performed in individual wells and absorbance at 570 nm was recorded on an EnSight Plate reader (PerkinElmer).

Data set [4] in a line: Single-dose pharmacokinetics in mice: plasma levels by UPLC-MS/MS. The format is in vivo. How it is done: as §1
The test system of data set [5] is mice. In words: Long-term application in mice: body weight, mortality, heart and lung weight to tibia length. The format is in vivo. The note with it: 8 weeks. How it is done: (§2) All animal studies were approved by and conducted in accordance with the German Animal Welfare Act and approved by the Animal Experiment Review Board of the Regierungspräsidium Karlsruhe, Germany. The study refers to the application G210-19. C57BL/6N mice were purchased from Charles River at the age of 12 weeks. Male and female mice were included in an equal ratio.
(§3) The compound (Medchemexpress) was dissolved in 5% DMSO, 40% PEG300, 5% Tween-80 in isotonic saline solution and administered either via oral gavage or by injection into the tail vein. Control animals received the same solution without compound.

In data set [6] the test system is murine heart. Briefly: Long-term application (8 weeks) in mice: transthoracic echocardiography. The format is in vivo. The note with it: over the course of 8 weeks. How it is done: as §2, §3
(§4) Cardiac performance was determined by transthoracic echocardiography. Measurements on conscious mice were performed using a Vevo® 2100 system with a 55 MHz transducer (Visualsonics). Ejection fraction (EF) was averaged over at least 5 contraction cycles. The experimenter was blinded for genotype and treatment.

Data set [7] deals with hematopoiesis. Briefly: Long-term application in mice: blood cell parameters. Type of data set: in vivo. The note with it: 8 weeks. How it is done: Hematological parameters were analyzed using an automated hematology analyzer ([…] ABC, ABX Diagnostics, France) according to manufacturer's instructions. Whole blood samples were collected into EDTA-coated tubes to prevent coagulation. The following parameters were determined: red blood cell count (RBC), white blood cell count (WBC), hemoglobin concentration (HGB), mean corpuscular volume (MCV), mean corpuscular hemoglobin (MCH), platelet count (PLT), and differential leukocyte counts.

Data set [8] deals with mice. In words: PRMT5i combined with ORAB/sham surgery: mortality. The format is in vivo. The note with it: PRMT5i-treated mice undergoing ORAB. How it is done:
as §3
(§5) The surgical procedure was essentially performed as previously described^20. In brief, animals were narcotized using Isoflurane. The thorax was opened and a nitrile O-ring (inner diameter 0.020 inch) was closed around the aorta ascendens in order to enhance pressure load of the left ventricle. Perisurgically and for the following days, analgesia was maintained via buprenorphine.

In data set [9] the test system is murine heart. Briefly: PRMT5i combined with O-ring aortic banding (ORAB)/sham surgery: echocardiography. Type of data set: in vivo. The note with it: mice, 56 days combined with ORAB/sham surgery. How it is done:
The compound (Medchemexpress) was dissolved in 5% DMSO, 40% PEG300, 5% Tween-80 in isotonic saline solution and administered either via oral gavage or by injection into the tail vein. Control animals received the same solution without compound. Cardiac performance was determined by transthoracic echocardiography. Measurements on conscious mice were performed using a Vevo® 2100 system with a 55 MHz transducer (Visualsonics). Ejection fraction (EF) was averaged over at least 5 contraction cycles. The experimenter was blinded for genotype and treatment.

Data set [10] has as its system hematopoiesis. In words: PRMT5i combined with ORAB/sham surgery: blood cell parameters. The format is in vivo. The note with it: mice, chronic PRMT5i with ORAB/sham. How it is done:
The surgical procedure was essentially performed as previously described^20. In brief, animals were narcotized using Isoflurane. The thorax was opened and a nitrile O-ring (inner diameter 0.020 inch) was closed around the aorta ascendens in order to enhance pressure load of the left ventricle. Perisurgically and for the following days, analgesia was maintained via buprenorphine. Hematological parameters were analyzed using an automated hematology analyzer ([…] ABC, ABX Diagnostics, France) according to manufacturer's instructions. Whole blood samples were collected into EDTA-coated tubes to prevent coagulation. The following parameters were determined: red blood cell count (RBC), white blood cell count (WBC), hemoglobin concentration (HGB), mean corpuscular volume (MCV), mean corpuscular hemoglobin (MCH), platelet count (PLT), and differential leukocyte counts.

The test system of data set [11] is murine heart. Briefly: Long-term application in mice: Masson Trichrome histology (fibrosis). The format is in vivo. The note with it: 8 weeks. How it is done:
Heart cross-sections (2-chamber view) were fixed in Roti Histofix (Roth, P087.5) and dehydrated in ethanol. After paraffin embedding, slices of 6µm thickness were cut and used for Hematoxylin/Eosin and Masson’s trichrome staining. Imaging was performed on a Zeiss Axioscan 7. For analysis, 10 snapshots of fixed dimension were taken per animal and the percentage of fibrotic tissue was assessed based on color threshold using ImageJ.

In data set [12] the test system is murine heart. Briefly: Short-term application (5 consecutive days) in mice: transthoracic echocardiography, survival. Type of data set: in vivo. How it is done:
as §2, §3, §4

A further data set concerns Myh7 and Nppa expression. Briefly: PRMT5i combined with ORAB/sham surgery: quantitative PCR of Myh7 and Nppa in left-ventricular tissue. The format is in vivo. The note with it: mice. How it is done:
as §5
1µg of RNA was reverse transcribed (PrimaDIRECT 2x PCR Master Mix Kit (Steinbrenner)) and cDNA was subjected to quantitative PCR on a LightCycler480 (Roche) using SYBR Green Master Mix (Thermo Fisher).
mmMyh7: • For: 5’ AGCATTCTCCTGCTGTTTCCT 3’ • Rev: 5’ CCAGGCCTGTAGAAGAGCTG 3’
mmNppa: • For: 5’ ATTGACAGGATTGGAGCCCAGAGT 3’ • Rev: 5’ TGACACACCACAAGGGCTTAGGAT 3’
mmGapdh: • For: 5’ GGTGGACCTCATGGCCTACA 3’ • Rev: 5’ CTCTCTTGCTCAGTGTCCTTGCT 3’

The test system of another data set is patients. As to conditions: ref [12], [18]; cited from earlier work.

Each structure is given as a SMILES string. Where two headings read alike, the source gives them in different places.

Turning to `O=C(NC[C@H](O)CN1CCc2ccccc2C1)c1cc(NC2COC2)ncn1` [EPZ015666], the “global SDMA” value in the data set with PRMT5 is “did not detect a significant reduction of global SDMA”.
For orientation: half-life means the time in which the quantity being followed falls by half. Usually bioavailability stands for the share of a dose that reaches the circulation, judged against a reference dose that is usually intravenous. Lower therefore signals little systemic uptake. Regarding `CC(=O)N1CCC(Nc2cc(C(=O)NC[C@H](O)CN3CCc4ccccc4C3)ncn2)CC1` [GSK3326595], the “tissue morphology / fibrotic remodeling” value in the data set on murine heart [1] is recorded as “no immediate detrimental effects or fibrotic remodeling”. Also, in data set [2] (as worded), the “heart targeted by % dosage on average” value was 19.0% and the “muscle tissue targeted by % dosage on average” value turned out to be 26.0%. Moreover, in [2] (as worded in b7, first of 'respectively'), the “heart targeted by % dosage on average (versus liver)” value is given as 26.0%. Further, in data set [2] (as worded in b7, second of 'respectively'), the “heart targeted by % dosage on average (versus kidney)” value amounted to 19.0%. In addition, the concentration at 1 h in data set [2] (both sexes, C57BL/6N, mouse, heart, read-out: absolute inhibitor concentration in heart) came to 82700 ng/g. For the same molecule, the Tmax in data set [2] (both sexes, C57BL/6N, mouse, liver, kidney, heart, skeletal muscle, other: oral (gavage) and intravenous (tail vein), both arms, single dose, read-out: time of maximum levels in liver, kidney, heart and skeletal muscle) stood at 1 h. Further, the concentration at 1 h in data set [2] (both sexes, C57BL/6N, mouse, skeletal muscle, read-out: absolute inhibitor concentration in skeletal muscle) worked out at 172000 ng/g. For the same molecule, the “fibrotic remodeling (histology)” value with murine heart [3] was “no significant fibrotic remodeling”. Besides, the cytotoxicity result in the data set on HEK293 cells was “significantly less cytotoxicity as compared to EPZ015666”. Further, the half-life in data set [4] (both sexes, C57BL/6N, mouse, plasma) worked out at 2.5 h. Further, in data set [4] (both sexes, C57BL/6N, mouse, plasma, po), the bioavailability was 5.7%. For the same molecule, in [4] (over a course of 12 h), the “decline of plasma concentration on average” value is reported as greater than 90%. Also, the “time of plasma peak concentration post application” value in data set [4] (single dose oral gavage or intravenous) came to 1 h. Moreover, in the data set on mice [5], the “heart weight-to-tibia length and lung weight-to-tibia length” value is reported as “did not reveal PRMT5i-induced alterations”; the “tolerability (body weight, mortality)” value was “well tolerated as determined by stable body weight without treatment-associated mortality”. Besides, the systolic cardiac function entry in the data set on murine heart [6] is on record as “preserved”. Further, in the data set on hematopoiesis [7], the “hematology: anemia, lymphopenia” value is “significant anemia and lymphopenia”; the platelets counts entry was “unaltered”. The mortality entry with mice [8] is recorded as “delayed mortality starting 2 weeks post-surgery”. In addition, the longitudinal echocardiographic analysis result with murine heart [9] is reported as “no statistical significance was found for any of the indicated time points in any group comparison”. Further, in the data set with hematopoiesis [10], the “hematology: anemia, leucopenia” value is “significant normocytic normochromic anemia and leucopenia”; the platelets entry is “not affected”. The “myocardial fibrosis (Masson Trichrome staining)” value in the data set on murine heart [11] is “remained stable”. Also, in the data set on murine heart [12] (oral once or twice a day, 5 consecutive days), the “ejection fraction” value is given as “did not detect changes in ejection fraction”. For the same molecule, the “death during the experiment” value in the data set with murine heart [12] (short-term application, 10 mg/kg) is “one animal (10 mg/kg) that died during the course of the experiment”. In addition, the “expression of cardiac stress markers Myh7 and Nppa” value with Myh7 and Nppa expression was “stable expression of classical cardiac stress markers such as Myh7 and Nppa”. For the same molecule, the “adverse cardiovascular events in clinical studies” value in the data set on patients is on record as “manifested adverse cardiovascular events were not described”.
